Results on one compound are retold here after patent publication US7754911B2, “Method for isolating methyl glycine nitrile-N,N-diacetonitriles from an aqueous crude mixture” (BASF Aktiengesellschaft, priority 2005, dated 2010).

This data set can be described thus: solubility of MGDN in water (temperature-dependent). It counts as physicochemical. On the procedure: MGDN has highly temperature-dependent solubility in water. For instance, only about 0.5% by weight of MGDN dissolves at 10° C. in water or an aqueous ammonium sulfate solution. At approx. 60° C., the solubility is still about 5% by weight. Above approx. 60° C., an emulsion of MGDN and its aqueous solution with more than 5% by weight of dissolved MGDN is present. No phase diagram of the water-MGDN system is known.
The MGDN concentration of the aqueous crude product mixture is generally from 3 to 50% by weight, preferably from 15 to 40% by weight, more preferably from 20 to 35% by weight. A content of dissolved MGDN of 1% by weight corresponds to a crystallization temperature of approx. 20° C., a content of dissolved MCDN of 5% by weight to a crystallization temperature of approx. 55° C. At 10° C., the water solubility of MGDN is still about 0.5% by weight.

SMILES strings stand for the structures.

In the case of `CC(C#N)N(CC#N)CC#N` (centres unmarked) [MGDN, methylglycinenitrile-N,N-diacetonitrile], the water solubility entry (at 10° C.) was “about 0.5 % by weight”. The solubility result was “about 0.5 % by weight” (at 10° C. in water or an aqueous ammonium sulfate solution) and “about 5 % by weight” (at approx. 60° C., in water). The “content of dissolved MGDN” value (corresponds to a crystallization temperature of approx. 20° C.) was found to be 1 % by weight and the “content of dissolved MGDN” value (corresponds to a crystallization temperature of approx. 55° C.) was 5 % by weight.
